ChEMBL document CHEMBL1127924, “Synthesis and structure - anti-tumor-promoting activity relationship of monogalactosyl diacylglycerols” (1994)

Columns and labels:
Human gammaherpesvirus 4 [1] = assay: Inhibitory activity against TPA-induced Epstein-Barr virus early antigen (EBV-EA) activation at a concentration of 500 mol ratio/TPA; type: functional; parameters: scale not given: the % may be the effect or the level left
Human gammaherpesvirus 4 [2] = assay: Inhibitory activity against TPA-induced Epstein-Barr virus early antigen (EBV-EA) activation at a concentration of 10 mol ratio/TPA; values are per cent of control
Human gammaherpesvirus 4 [3] = assay: Inhibitory activity against TPA-induced Epstein-Barr virus early antigen (EBV-EA) activation at a concentration of 1000 mol ratio/TPA; type: functional
Human gammaherpesvirus 4 [4] = assay: Inhibitory activity against TPA-induced Epstein-Barr virus early antigen (EBV-EA) activation at a concentration of 100 mol ratio/TPA; values are per cent of control

CCCCC/C=C/C/C=C/CCCCCCCC(=O)O[C@H](COC(=O)CCCCCCCCCCCCC)CO[C@@H]1O[C@H](CO)[C@H](O)[C@H](O)[C@H]1O
Control (Human gammaherpesvirus 4 [1]): 39.6%
EBV-EA activation (% of control) (Human gammaherpesvirus 4 [2]): 100%
EBV-EA activation (% of control) (Human gammaherpesvirus 4 [3]): 17.1%
EBV-EA activation (% of control) (Human gammaherpesvirus 4 [4]): 88.2%

CCCCCCCCCCCCCC(=O)OC[C@H](CO[C@@H]1O[C@H](CO)[C@H](O)[C@H](O)[C@H]1O)OC(=O)CCCCCCCCCCCCC
Control (Human gammaherpesvirus 4 [1]): 15.4%
EBV-EA activation (% of control) (Human gammaherpesvirus 4 [2]): 100%
EBV-EA activation (% of control) (Human gammaherpesvirus 4 [3]): 0%
EBV-EA activation (% of control) (Human gammaherpesvirus 4 [4]): 88.2%

CCCCCCCCC/C=C/C=C/C=C/C=C/C=C/C=C/C(=O)OC[C@H](CO[C@@H]1O[C@H](CO)[C@H](O)[C@H](O)[C@H]1O)OC(=O)CCCCCCCCCCCCC
Control (Human gammaherpesvirus 4 [1]): 29.7%
EBV-EA activation (% of control) (Human gammaherpesvirus 4 [2]): 100%
EBV-EA activation (% of control) (Human gammaherpesvirus 4 [3]): 13.8%
EBV-EA activation (% of control) (Human gammaherpesvirus 4 [4]): 68.9%

CCCCCCCCC/C=C/C=C/C=C/C=C/C=C/C(=O)OC[C@H](CO[C@@H]1O[C@H](CO)[C@H](O)[C@H](O)[C@H]1O)OC(=O)/C=C/C=C/C=C/C=C/C=C/CCCCCCCCC
Control (Human gammaherpesvirus 4 [1]): 54.3%
EBV-EA activation (% of control) (Human gammaherpesvirus 4 [2]): 100%
EBV-EA activation (% of control) (Human gammaherpesvirus 4 [3]): 0%
EBV-EA activation (% of control) (Human gammaherpesvirus 4 [4]): 89%

CCCCCCCC/C=C/CCCCCCCC(=O)OC[C@H](CO[C@@H]1O[C@H](CO)[C@H](O)[C@H](O)[C@H]1O)OC(=O)/C=C/C=C/C=C/C=C/C=C/CCCCCCCCC
Control (Human gammaherpesvirus 4 [1]): 0%
EBV-EA activation (% of control) (Human gammaherpesvirus 4 [2]): 81.7%
EBV-EA activation (% of control) (Human gammaherpesvirus 4 [3]): 0%
EBV-EA activation (% of control) (Human gammaherpesvirus 4 [4]): 53.6%

CCCCC/C=C/C/C=C/CCCCCCCC(=O)O[C@H](COC(=O)CCCCCCC/C=C/CCCCCC)CO[C@@H]1O[C@H](CO)[C@H](O)[C@H](O)[C@H]1O
Control (Human gammaherpesvirus 4 [1]): 74.6%
EBV-EA activation (% of control) (Human gammaherpesvirus 4 [2]): 100%
EBV-EA activation (% of control) (Human gammaherpesvirus 4 [3]): 53.3%
EBV-EA activation (% of control) (Human gammaherpesvirus 4 [4]): 100%

CCCCCCCC/C=C/CCCCCCCC(=O)OC[C@H](CO[C@@H]1O[C@H](CO)[C@H](O)[C@H](O)[C@H]1O)OC(=O)/C=C/C=C/C=C/C=C/C=C/C=C/CCCCCCCCC
Control (Human gammaherpesvirus 4 [1]): 26.4%
EBV-EA activation (% of control) (Human gammaherpesvirus 4 [2]): 88.4%
EBV-EA activation (% of control) (Human gammaherpesvirus 4 [3]): 0%
EBV-EA activation (% of control) (Human gammaherpesvirus 4 [4]): 68.1%

CCCCCCCCC/C=C/C=C/C=C/C=C/C=C/C(=O)O[C@H](COC(=O)CCCCCCCCCCCCC)CO[C@@H]1O[C@H](CO)[C@H](O)[C@H](O)[C@H]1O
Control (Human gammaherpesvirus 4 [1]): 30.6%
EBV-EA activation (% of control) (Human gammaherpesvirus 4 [2]): 90.7%
EBV-EA activation (% of control) (Human gammaherpesvirus 4 [3]): 15.8%
EBV-EA activation (% of control) (Human gammaherpesvirus 4 [4]): 72.8%

CC/C=C/C/C=C/C/C=C/CCCCCCCC(=O)O[C@H](COC(=O)CCCCCCC/C=C/C/C=C/CCCCC)CO[C@@H]1O[C@H](CO)[C@H](O)[C@H](O)[C@H]1O
Control (Human gammaherpesvirus 4 [1]): 22.2%
EBV-EA activation (% of control) (Human gammaherpesvirus 4 [2]): 84.9%
EBV-EA activation (% of control) (Human gammaherpesvirus 4 [3]): 8.7%
EBV-EA activation (% of control) (Human gammaherpesvirus 4 [4]): 64.5%

CC/C=C/C/C=C/C/C=C/CCCCCCCC(=O)O[C@H](COC(=O)CCCCCCCCCCCCCCC)CO[C@@H]1O[C@H](CO)[C@H](O)[C@H](O)[C@H]1O
Control (Human gammaherpesvirus 4 [1]): 57.6%
EBV-EA activation (% of control) (Human gammaherpesvirus 4 [2]): 100%
EBV-EA activation (% of control) (Human gammaherpesvirus 4 [3]): 19.4%
EBV-EA activation (% of control) (Human gammaherpesvirus 4 [4]): 92.6%

CCCCCCCCCCCCCC(=O)OC[C@@H](CO[C@@H]1O[C@H](CO)[C@H](O)[C@H](O)[C@H]1O)OC(C)=O
Control (Human gammaherpesvirus 4 [1]): 36.8%
EBV-EA activation (% of control) (Human gammaherpesvirus 4 [2]): 77.4%
EBV-EA activation (% of control) (Human gammaherpesvirus 4 [3]): 17.4%
EBV-EA activation (% of control) (Human gammaherpesvirus 4 [4]): 52.9%

CCC=CCC=CCC=CCCCCCCCC(=O)O[C@@H](COC(=O)CCCCCCCCCCCCC)CO[C@@H]1O[C@H](CO)[C@H](O)[C@H](O)[C@H]1O
Control (Human gammaherpesvirus 4 [1]): 20.2%
EBV-EA activation (% of control) (Human gammaherpesvirus 4 [2]): 100%
EBV-EA activation (% of control) (Human gammaherpesvirus 4 [3]): 0%
EBV-EA activation (% of control) (Human gammaherpesvirus 4 [4]): 73.9%

CCCCCCCCC/C=C/C=C/C=C/C=C/C=C/C(=O)O[C@@H](COC(=O)CCCCCCCCCCCCC)CO[C@@H]1O[C@H](CO)[C@H](O)[C@H](O)[C@H]1O
Control (Human gammaherpesvirus 4 [1]): 52.8%
EBV-EA activation (% of control) (Human gammaherpesvirus 4 [2]): 100%
EBV-EA activation (% of control) (Human gammaherpesvirus 4 [3]): 26.1%
EBV-EA activation (% of control) (Human gammaherpesvirus 4 [4]): 84.1%

CCCCCCCC/C=C/CCCCCCCC(=O)O[C@H](COC(=O)C=C/C=C/C=C/C=C/C=C/C=C/CCCCCCCCC)CO[C@@H]1O[C@H](CO)[C@H](O)[C@H](O)[C@H]1O
Control (Human gammaherpesvirus 4 [1]): 12.8%
EBV-EA activation (% of control) (Human gammaherpesvirus 4 [2]): 83.2%
EBV-EA activation (% of control) (Human gammaherpesvirus 4 [3]): 0%
EBV-EA activation (% of control) (Human gammaherpesvirus 4 [4]): 62.9%

CCCCCCCC/C=C/CCCCCCCC(=O)O[C@H](COC(=O)CCCCCCCCCCCCC)CO[C@@H]1O[C@H](CO)[C@H](O)[C@H](O)[C@H]1O
Control (Human gammaherpesvirus 4 [1]): 16.9%
EBV-EA activation (% of control) (Human gammaherpesvirus 4 [2]): 100%
EBV-EA activation (% of control) (Human gammaherpesvirus 4 [3]): 0%
EBV-EA activation (% of control) (Human gammaherpesvirus 4 [4]): 80.4%

CCCCCCCCC/C=C/C=C/C=C/C=C/C=C/C=C/C(=O)OC[C@H](CO[C@@H]1O[C@H](CO)[C@H](O)[C@H](O)[C@H]1O)OC(=O)/C=C/C=C/C=C/C=C/C=C/C=C/CCCCCCCCC
Control (Human gammaherpesvirus 4 [1]): 26.3%
EBV-EA activation (% of control) (Human gammaherpesvirus 4 [2]): 86.8%
EBV-EA activation (% of control) (Human gammaherpesvirus 4 [3]): 0%
EBV-EA activation (% of control) (Human gammaherpesvirus 4 [4]): 64.8%

OC[C@@H](O)CO[C@@H]1O[C@H](CO)[C@H](O)[C@H](O)[C@H]1O
Control (Human gammaherpesvirus 4 [1]): 15.8%
EBV-EA activation (% of control) (Human gammaherpesvirus 4 [2]): 100%
EBV-EA activation (% of control) (Human gammaherpesvirus 4 [3]): 0%
EBV-EA activation (% of control) (Human gammaherpesvirus 4 [4]): 66.7%

CCCCCCCC/C=C/CCCCCCCC(=O)OCC(O)CO[C@@H]1O[C@H](CO)[C@H](O)[C@H](O)[C@H]1O (single isomer, unassigned)
Control (Human gammaherpesvirus 4 [1]): 0%
EBV-EA activation (% of control) (Human gammaherpesvirus 4 [2]): 100%
EBV-EA activation (% of control) (Human gammaherpesvirus 4 [3]): 0%
EBV-EA activation (% of control) (Human gammaherpesvirus 4 [4]): 84.7%

CCCCCCCCCCCCCC(=O)OCC(O)CO[C@@H]1O[C@H](CO)[C@H](O)[C@H](O)[C@H]1O (single isomer, unassigned)
Control (Human gammaherpesvirus 4 [1]): 22.5%
EBV-EA activation (% of control) (Human gammaherpesvirus 4 [2]): 90.7%
EBV-EA activation (% of control) (Human gammaherpesvirus 4 [3]): 0%
EBV-EA activation (% of control) (Human gammaherpesvirus 4 [4]): 65.3%

CCCCC/C=C/C/C=C/CCCCCCCC(=O)OCC(O)CO[C@@H]1O[C@H](CO)[C@H](O)[C@H](O)[C@H]1O (single isomer, unassigned)
Control (Human gammaherpesvirus 4 [1]): 24.1%
EBV-EA activation (% of control) (Human gammaherpesvirus 4 [2]): 100%
EBV-EA activation (% of control) (Human gammaherpesvirus 4 [3]): 0%
EBV-EA activation (% of control) (Human gammaherpesvirus 4 [4]): 79.8%

CCCCCCCC/C=C/CCCCCCCC(=O)OCC(CO[C@@H]1O[C@H](CO)[C@H](O)[C@H](O)[C@H]1O)OC(=O)CCCCCCC/C=C/CCCCCCCC (single isomer, unassigned)
Control (Human gammaherpesvirus 4 [1]): 11%
EBV-EA activation (% of control) (Human gammaherpesvirus 4 [2]): 61%
EBV-EA activation (% of control) (Human gammaherpesvirus 4 [3]): 0%
EBV-EA activation (% of control) (Human gammaherpesvirus 4 [4]): 21.3%

CCCCCCCCCC=CC=CC=CC=CC=CC=CC(=O)OC(COC(=O)CCCCCCCCCCCCC)CO[C@@H]1O[C@H](CO)[C@H](O)[C@H](O)[C@H]1O (single isomer, unassigned)
Control (Human gammaherpesvirus 4 [1]): 64.7%
EBV-EA activation (% of control) (Human gammaherpesvirus 4 [2]): 100%
EBV-EA activation (% of control) (Human gammaherpesvirus 4 [3]): 0%
EBV-EA activation (% of control) (Human gammaherpesvirus 4 [4]): 88.3%

CCCCCCCCC=CCCCCCCCC(=O)OC(COC(=O)C=CC=CC=CC=CC=CCCCCCCCCC)CO[C@@H]1O[C@H](CO)[C@H](O)[C@H](O)[C@H]1O (single isomer, unassigned)
Control (Human gammaherpesvirus 4 [1]): 18.5%
EBV-EA activation (% of control) (Human gammaherpesvirus 4 [2]): 93.2%
EBV-EA activation (% of control) (Human gammaherpesvirus 4 [3]): 0%
EBV-EA activation (% of control) (Human gammaherpesvirus 4 [4]): 69.6%
